Results published in patent publication US20230295234A1, “ANTIMICROBIAL PEPTIDOMIMETICS” (SPEXIS AG, priority 2020, published 2023).
Peptide text beside a SMILES is read from it.

Tests used:
[1] = system: Escherichia coli ATCC 25922; details: ATCC 25922
Method in brief: (§1)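 Standardized inocula (0.5 McFarland in saline, then diluted in MHII broth to approximately 5×10^5 CFU/mL) were exposed to two-fold dilution series of each peptide in the presence of polysorbate 80 (0.002% final).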

[2] = system: Klebsiella pneumoniae SSI3010; details: SSI3010
Method in brief: as §1

[3] = system: Escherichia coli MCR-1 Af 45; details: Mueller-Hinton broth II, 18-20 hours at 35° C.
Method in brief: as §1

[4] = system: human red blood cells (hRBC); test: Hemolysis of human red blood cells; format: cell-based; details: red cells of human, 1 h
Method in brief: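 Percent hemolysis is OD540 of peptide-treated supernatant relative to water-lysed cells. Each peptide was tested at 200 μg/mL against 20% (v/v) washed human erythrocytes. Incubation was 1 h at 37 °C, 300 rpm.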

Structure (SMILES) | Escherichia coli ATCC 25922 MIC [1] | Klebsiella pneumoniae SSI3010 MIC [2] | Escherichia coli MCR-1 Af 45 MIC [3] | Hemolysis at 0.2 g/L [4]
CC[C@H](C)[C@H](NC(=O)[C@@H]1C[C@@H](O)CN1C(=O)[C@@H](N)C(C)C)C(=O)N[C@H](C(=O)N[C@@H](Cc1ccc(O)cc1)C(=O)N[C@@H]1C(=O)N[C@@H](CC(N)=O)C(=O)N[C@@H](CCCNC(=N)N)C(=O)N[C@@H](CCN)C(=O)N[C@@H]([C@@H](C)O)C(=O)N[C@H](CCCN)C(=O)N[C@@H](CCCCN)C(=O)N[C@H](C(=O)N[C@@H](CCN)C(=O)N[C@@H](CCCNC(=N)N)C(=O)N[C@@H](Cc2ccc(O)cc2)C(=O)O)CSSC1(C)C)[C@@H](C)O [Example 150] (HELM PEPTIDE1{V.[Hyp].I.T.Y.[Pen].N.R.[Dab].T.[NCCC[C@@H](N[*:1])C(=O)[*:2]].K.C.[Dab].R.Y}$PEPTIDE1,PEPTIDE1,6:R3-13:R3$$$V2.0) | 0.25 µg/mL | 0.5 µg/mL | 0.125 µg/mL | 0%
CC[C@H](C)[C@H](NC(=O)[C@@H]1C[C@@H](O)CN1C(=O)[C@@H](N)C(C)C)C(=O)N[C@H](C(=O)N[C@@H](Cc1ccc(O)cc1)C(=O)N[C@@H]1C(=O)N[C@@H](CC(N)=O)C(=O)N[C@@H](CCCNC(=N)N)C(=O)N[C@@H](CCN)C(=O)N[C@@H]([C@@H](C)O)C(=O)N[C@H](CCCCN)C(=O)N[C@@H](CCCCN)C(=O)N[C@H](C(=O)N[C@@H](CCN)C(=O)N[C@@H](CCCNC(=N)N)C(=O)N[C@@H](Cc2ccc(O)cc2)C(=O)O)CSSC1(C)C)[C@@H](C)O [Example 151] (HELM PEPTIDE1{V.[Hyp].I.T.Y.[Pen].N.R.[Dab].T.[dK].K.C.[Dab].R.Y}$PEPTIDE1,PEPTIDE1,6:R3-13:R3$$$V2.0) | 0.25 µg/mL | 0.5 µg/mL | 0.25 µg/mL | 0%
CC[C@H](C)[C@H](NC(=O)[C@@H]1C[C@@H](O)CN1C(=O)[C@@H](N)C(C)C)C(=O)N[C@H](C(=O)N[C@@H](Cc1ccc(O)cc1)C(=O)N[C@@H]1C(=O)N[C@@H](CC(N)=O)C(=O)N[C@@H](CCCNC(=N)N)C(=O)N[C@@H](CCN)C(=O)N[C@@H]([C@@H](C)O)C(=O)N[C@H](CCCNC(=N)N)C(=O)N[C@@H](CCCCN)C(=O)N[C@H](C(=O)N[C@@H](CCN)C(=O)N[C@@H](CCCNC(=N)N)C(=O)N[C@@H](Cc2ccc(O)cc2)C(=O)O)CSSC1(C)C)[C@@H](C)O [Example 152] (HELM PEPTIDE1{V.[Hyp].I.T.Y.[Pen].N.R.[Dab].T.[dR].K.C.[Dab].R.Y}$PEPTIDE1,PEPTIDE1,6:R3-13:R3$$$V2.0) | 0.25 µg/mL | 0.25 µg/mL | 0.25 µg/mL | 0%
CC[C@H](C)[C@H](NC(=O)[C@@H]1C[C@@H](O)CN1C(=O)[C@@H](N)C(C)C)C(=O)N[C@@H](CCN)C(=O)N[C@@H](Cc1ccc(O)cc1)C(=O)N[C@@H]1C(=O)N[C@@H](CC(N)=O)C(=O)N[C@@H](CCCNC(=N)N)C(=O)N[C@@H](CCN)C(=O)N[C@@H]([C@@H](C)O)C(=O)N[C@H](CCN)C(=O)N[C@@H](CCCCN)C(=O)N[C@H](C(=O)N[C@@H](CCN)C(=O)N[C@H](C(=O)N[C@@H](Cc2ccc(O)cc2)C(=O)O)[C@@H](C)O)CSSC1(C)C [Example 153] (HELM PEPTIDE1{V.[Hyp].I.[Dab].Y.[Pen].N.R.[Dab].T.[NCC[C@@H](N[*:1])C(=O)[*:2]].K.C.[Dab].T.Y}$PEPTIDE1,PEPTIDE1,6:R3-13:R3$$$V2.0) | 0.125 µg/mL | 0.5 µg/mL | 0.5 µg/mL | 0%
CC[C@H](C)[C@H](NC(=O)[C@@H]1C[C@@H](O)CN1C(=O)[C@@H](N)C(C)C)C(=O)N[C@@H](CCCNC(=N)N)C(=O)N[C@@H](Cc1ccc(O)cc1)C(=O)N[C@@H]1C(=O)N[C@@H](CC(N)=O)C(=O)N[C@@H](CCCNC(=N)N)C(=O)N[C@@H](CCN)C(=O)N[C@@H]([C@@H](C)O)C(=O)N[C@H](CCN)C(=O)N[C@@H](CCCCN)C(=O)N[C@H](C(=O)N[C@@H](CCN)C(=O)N[C@H](C(=O)N[C@@H](Cc2ccc(O)cc2)C(=O)O)[C@@H](C)O)CSSC1(C)C [Example 154] (HELM PEPTIDE1{V.[Hyp].I.R.Y.[Pen].N.R.[Dab].T.[NCC[C@@H](N[*:1])C(=O)[*:2]].K.C.[Dab].T.Y}$PEPTIDE1,PEPTIDE1,6:R3-13:R3$$$V2.0) | 0.25 µg/mL | 0.5 µg/mL | 0.25 µg/mL | 0%
CC[C@H](C)[C@H](NC(=O)[C@@H]1C[C@@H](O)CN1C(=O)[C@@H](N)C(C)C)C(=O)N[C@@H](Cc1ccc(O)cc1)C(=O)N[C@@H](Cc1ccc(O)cc1)C(=O)N[C@@H]1C(=O)N[C@@H](CC(N)=O)C(=O)N[C@@H](CCCNC(=N)N)C(=O)N[C@@H](CCN)C(=O)N[C@@H]([C@@H](C)O)C(=O)N[C@H](CCN)C(=O)N[C@@H](CCCCN)C(=O)N[C@H](C(=O)N[C@@H](CCN)C(=O)N[C@@H](CCCNC(=N)N)C(=O)N[C@@H](Cc2ccc(O)cc2)C(=O)O)CSSC1(C)C [Example 155] (HELM PEPTIDE1{V.[Hyp].I.Y.Y.[Pen].N.R.[Dab].T.[NCC[C@@H](N[*:1])C(=O)[*:2]].K.C.[Dab].R.Y}$PEPTIDE1,PEPTIDE1,6:R3-13:R3$$$V2.0) | 0.125 µg/mL | 0.25 µg/mL | 0.0625 µg/mL | 0%
CC[C@H](C)[C@H](NC(=O)[C@@H]1C[C@@H](O)CN1C(=O)[C@@H](N)C(C)C)C(=O)N[C@@H](CC(C)C)C(=O)N[C@@H](Cc1ccc(O)cc1)C(=O)N[C@@H]1C(=O)N[C@@H](CC(N)=O)C(=O)N[C@@H](CCCNC(=N)N)C(=O)N[C@@H](CCN)C(=O)N[C@@H]([C@@H](C)O)C(=O)N[C@H](CCN)C(=O)N[C@@H](CCCCN)C(=O)N[C@H](C(=O)N[C@@H](CCN)C(=O)N[C@@H](CCCNC(=N)N)C(=O)N[C@@H](Cc2ccc(O)cc2)C(=O)O)CSSC1(C)C [Example 156] (HELM PEPTIDE1{V.[Hyp].I.L.Y.[Pen].N.R.[Dab].T.[NCC[C@@H](N[*:1])C(=O)[*:2]].K.C.[Dab].R.Y}$PEPTIDE1,PEPTIDE1,6:R3-13:R3$$$V2.0) | 0.25 µg/mL | 0.5 µg/mL | 0.25 µg/mL | 0%
CC[C@H](C)[C@H](NC(=O)[C@@H]1C[C@@H](O)CN1C(=O)[C@@H](N)C(C)C)C(=O)N[C@@H](CC(N)=O)C(=O)N[C@@H](Cc1ccc(O)cc1)C(=O)N[C@@H]1C(=O)N[C@@H](CC(N)=O)C(=O)N[C@@H](CCCNC(=N)N)C(=O)N[C@@H](CCN)C(=O)N[C@@H]([C@@H](C)O)C(=O)N[C@H](CCN)C(=O)N[C@@H](CCCCN)C(=O)N[C@H](C(=O)N[C@@H](CCN)C(=O)N[C@@H](CCCNC(=N)N)C(=O)N[C@@H](Cc2ccc(O)cc2)C(=O)O)CSSC1(C)C [Example 157] (HELM PEPTIDE1{V.[Hyp].I.N.Y.[Pen].N.R.[Dab].T.[NCC[C@@H](N[*:1])C(=O)[*:2]].K.C.[Dab].R.Y}$PEPTIDE1,PEPTIDE1,6:R3-13:R3$$$V2.0) | 0.125 µg/mL | 0.5 µg/mL | 0.125 µg/mL | 0%
CC[C@H](C)[C@H](NC(=O)[C@@H]1C[C@@H](O)CN1C(=O)[C@@H](N)C(C)C)C(=O)N[C@@H](CCN)C(=O)N[C@@H](Cc1ccc(O)cc1)C(=O)N[C@@H]1C(=O)N[C@@H](CC(N)=O)C(=O)N[C@@H](CCCNC(=N)N)C(=O)N[C@@H](CCN)C(=O)N[C@@H]([C@@H](C)O)C(=O)N[C@H](CCN)C(=O)N[C@@H](CCCCN)C(=O)N[C@H](C(=O)N[C@@H](CCN)C(=O)N[C@@H](CCCNC(=N)N)C(=O)N[C@@H](Cc2ccc(O)cc2)C(=O)O)CSSC1(C)C [Example 158] (HELM PEPTIDE1{V.[Hyp].I.[Dab].Y.[Pen].N.R.[Dab].T.[NCC[C@@H](N[*:1])C(=O)[*:2]].K.C.[Dab].R.Y}$PEPTIDE1,PEPTIDE1,6:R3-13:R3$$$V2.0) | 0.125 µg/mL | 0.5 µg/mL | 0.125 µg/mL | 0%
CC[C@H](C)[C@H](NC(=O)[C@@H]1C[C@@H](O)CN1C(=O)[C@@H](N)C(C)C)C(=O)N[C@@H](CCCCN)C(=O)N[C@@H](Cc1ccc(O)cc1)C(=O)N[C@@H]1C(=O)N[C@@H](CC(N)=O)C(=O)N[C@@H](CCCNC(=N)N)C(=O)N[C@@H](CCN)C(=O)N[C@@H]([C@@H](C)O)C(=O)N[C@H](CCN)C(=O)N[C@@H](CCCCN)C(=O)N[C@H](C(=O)N[C@@H](CCN)C(=O)N[C@@H](CCCNC(=N)N)C(=O)N[C@@H](Cc2ccc(O)cc2)C(=O)O)CSSC1(C)C [Example 159] (HELM PEPTIDE1{V.[Hyp].I.K.Y.[Pen].N.R.[Dab].T.[NCC[C@@H](N[*:1])C(=O)[*:2]].K.C.[Dab].R.Y}$PEPTIDE1,PEPTIDE1,6:R3-13:R3$$$V2.0) | 0.125 µg/mL | 0.5 µg/mL | 0.25 µg/mL | 0%
